In US8569045B2, “Water toxicity detecting apparatus and method using sulfur particles” (University-Industry Cooperation Foundation, Kangwon …, priority 2007, dated 2013):

System: sulfur-oxidizing microbes
Assay: Water toxicity detection with sulfur particles: electrical conductivity difference between inflow and outflow water, continuous reaction container
Assay type: cell-based, Thiobacillus
Settings: 30 ppm test substance in the sample; EBCT 17 minute; 30° C.; ratio 0~1, about 1 = no toxicity, about 0 = high toxicity; 0.3 corresponds to issuing alarm
Protocol: When the microbes attached around the sulfur particles are grown in the reaction container 130 of which conditions such as temperature is constant, the sulfur is oxidized at a constant speed. The following formula expresses a reaction of generation of sulfate ions and hydrogen ions in the processes. S+H2O+1.5O2−>SO4^2−+2H^+ΔG°′=−587.1 kJ/reaction
Referring to the above formula, the sulfur particles react with the microbes, the inflow water, and the oxygen in the reaction container 130 to generate a predetermined amount of sulfate ions. In case of non-toxic outflow water, the amount of sulfate ions thereof is increased by a predetermined amount in comparison with the inflow water. Since a degree of alkali in a river water is generally low, pH of the outflow water is decreased in comparison with the inflow water.
However, in case of the inflow water containing toxic substances, a degree of activation of the microbes attached around the sulfur particles is lowered, so that the sulfur particles can not be oxidized. […]
The reaction container is filled with a 30 mL of sulfur particles. […] While an empty bed contact time (EBCT) of the inflow water is changed among 7.1, 8.3, 10.0, 12.5, and 16.7 minutes, the pH and electrical conductivity of the inflow water and the outflow water are measured. The EBCT is calculated by dividing a volume (30 mL) of the sulfur particles with a flow rate. […]

With hexavalent chrome the ECDifference ratio was 0.3.
